The assay concerns the target human M4 receptor (Homo sapiens (Human), UniProt P08173). Kind of assay: Radioligand (tritiated N-methylscopolamine) binding assay, M4. The following applies: Ki against the M4 receptor; membranes from CHO cells expressing human M4; tritiated N-methylscopolamine 1.5 nM; read-out: Ki. A digest of the protocol:
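Membranes from CHO cells expressing the receptor were incubated with 1.5 nM radioligand and twelve compound concentrations (10 μM to […]) for 90 min at 37 °C in 50 mM HEPES, 100 mM NaCl, 5 mM MgCl2, 1 mM EDTA, pH 7.4. Bound radioligand was collected by filtration and counted, and Ki was derived from inhibition.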

Sequence of human M4 receptor (P08173 whole entry): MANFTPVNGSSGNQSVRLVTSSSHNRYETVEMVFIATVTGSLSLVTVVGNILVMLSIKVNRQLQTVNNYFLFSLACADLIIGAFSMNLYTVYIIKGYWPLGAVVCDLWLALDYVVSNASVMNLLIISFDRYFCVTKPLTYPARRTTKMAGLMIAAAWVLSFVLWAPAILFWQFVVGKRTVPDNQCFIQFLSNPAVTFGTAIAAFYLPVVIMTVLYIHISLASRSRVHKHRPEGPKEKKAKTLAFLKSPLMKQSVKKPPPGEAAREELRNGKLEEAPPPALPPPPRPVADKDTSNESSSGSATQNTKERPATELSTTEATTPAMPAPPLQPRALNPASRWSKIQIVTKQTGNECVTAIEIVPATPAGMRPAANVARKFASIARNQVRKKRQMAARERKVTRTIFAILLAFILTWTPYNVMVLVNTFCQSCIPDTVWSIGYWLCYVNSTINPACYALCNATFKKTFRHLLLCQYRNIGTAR

As to `O=C(NCCC1CCN(Cc2cccc3c2OCCO3)CC1)c1ccc(OCc2ccccc2)cc1` [11-7, 4-(benzyloxy)-N-{2-[1-(2,3-dihydro-1,4-benzodioxin-5-ylmethyl)piperidin-4-yl]ethyl}benzamide], the Ki was 10 to 100 nM. With `N#Cc1ccc(N2CCC(C(=O)NCCC3CCN(CC4CCCCC4)CC3)CC2)nc1` [11-8, 1-(5-cyanopyridin-2-yl)-N-{2-[1-(cyclohexylmethyl)piperidin-4-yl]ethyl}piperidine-4-carboxamide] the figure was 100 to 1000 nM. With `COc1cccc(CN2CCC(CCNC(=O)c3ccc(OCc4ccccc4)cc3)CC2)c1O` [11-9, 4-(benzyloxy)-N-(2-{1-[(2-hydroxy-3-methoxyphenyl)methyl]piperidin-4-yl}ethyl)benzamide] the figure was 100 to 1000 nM. Then `O=C(NCCC1CCN(Cc2csnn2)CC1)C1CCN(c2ccc(OC(F)(F)F)cc2)CC1` [11-11, N-{2-[1-(1,2,3-thiadiazol-4-ylmethyl)piperidin-4-yl]ethyl}-1-[4-(trifluoromethoxy)phenyl]piperidine-4-carboxamide], with 100 to 1000 nM; and `O=C(NCCC1CCN(Cc2cccc(O)c2)CC1)c1ccc(Oc2ccccc2)cc1` [11-13, N-(2-{1-[(3-hydroxyphenyl)methyl]piperidin-4-yl}ethyl)-4-phenoxybenzamide], with 100 to 1000 nM. As for `CC(c1ccccc1)N1CCC(CCNC(=O)c2ccc(OCc3ccccc3)cc2)CC1` (centres unmarked) [11-14, 4-(benzyloxy)-N-{2-[1-(1-phenylethyl)piperidin-4-yl]ethyl}benzamide], the Ki lay in the range of 100 to 1000 nM. For the molecule `Cn1cccc1CN1CCC(CCNC(=O)C2CCN(c3ccc(OC(F)(F)F)cc3)CC2)CC1` [11-15, N-(2-{1-[(1-methyl-1H-pyrrol-2-yl)methyl]piperidin-4-yl}ethyl)-1-[4-(trifluoromethoxy)phenyl]piperidine-4-carboxamide], the Ki fell in the range of 100 to 1000 nM. With `N#Cc1ccc(N2CCC(C(=O)NCCC3CCN(Cc4cccc5c4OCCO5)CC3)CC2)nc1` [11-16, 1-(5-cyanopyridin-2-yl)-N-{2-[1-(2,3-dihydro-1,4-benzodioxin-5-ylmethyl)piperidin-4-yl]ethyl}piperidine-4-carboxamide] the figure was 100 to 1000 nM. Regarding `N#Cc1ccc(N2CCC(C(=O)NCCC3CCN(Cc4ccc(O)cc4)CC3)CC2)nc1` [11-17, 1-(5-cyanopyridin-2-yl)-N-(2-{1-[(4-hydroxyphenyl)methyl]piperidin-4-yl}ethyl)piperidine-4-carboxamide], the Ki is 100 to 1000 nM.

In the case of `O=C(NCCC1CCN(Cc2cccc3c2OCCO3)CC1)c1ccc(Oc2ccccc2)cc1` [11-18, N-{2-[1-(2,3-dihydro-1,4-benzodioxin-5-ylmethyl)piperidin-4-yl]ethyl}-4-phenoxybenzamide], the Ki was in the range of 100 to 1000 nM.

As to `O=C(NCCC1CCN(CC2CCCCC2)CC1)C1CCN(c2ccc(OC(F)(F)F)cc2)CC1` [11-21, N-{2-[1-(cyclohexylmethyl)piperidin-4-yl]ethyl}-1-[4-(trifluoromethoxy)phenyl]piperidine-4-carboxamide], the inhibitory constant (Ki) was in the range of 100 to 1000 nM. Regarding `O=C(NCCC1CCN(Cc2ccc3[nH]ccc3c2)CC1)C1CCN(c2ccc(OC(F)(F)F)cc2)CC1` [11-22, N-{2-[1-(1H-indol-5-ylmethyl)piperidin-4-yl]ethyl}-1-[4-(trifluoromethoxy)phenyl]piperidine-4-carboxamide], the inhibition constant (Ki) lay within 100 to 1000 nM.

`O=C(NCC(O)C1CCN(CC2CCCCC2)CC1)C1CCN(c2ccc(OC(F)(F)F)cc2)CC1` (centres unmarked) [11-23, N-{2-[1-(cyclohexylmethyl)piperidin-4-yl]-2-hydroxyethyl}-1-[4-(trifluoromethoxy)phenyl]piperidine-4-carboxamide]: the Ki fell in the range of 100 to 1000 nM. Then `O=C(NCCC1CCN(Cc2cccc(F)c2)CC1)c1ccc(OCc2ccccc2)cc1` [11-24, 4-(benzyloxy)-N-(2-{1-[(3-fluorophenyl)methyl]piperidin-4-yl}ethyl)benzamide], with 100 to 1000 nM; and `N#Cc1ccc(N2CCC(C(=O)NCCC3CCN(Cc4ccccc4O)CC3)CC2)nc1` [11-25, 1-(5-cyanopyridin-2-yl)-N-(2-{1-[(2-hydroxyphenyl)methyl]piperidin-4-yl}ethyl)piperidine-4-carboxamide], with 100 to 1000 nM; and `N#Cc1ccc(N2CCC(C(=O)NCCC3CCN(Cc4ccccc4O)CC3)CC2)nc1` [11-26, 1-(5-cyanopyridin-2-yl)-N-(2-{1-[(2-hydroxyphenyl)methyl]piperidin-4-yl}ethyl)piperidine-4-carboxamide], with 100 to 1000 nM.

In the case of `O=C(NCCC1CCN(Cc2cccc3c2OCC3)CC1)C1CCN(c2ccc(OC(F)(F)F)cc2)CC1` [11-29, N-{2-[1-(2,3-dihydro-1-benzofuran-7-ylmethyl)piperidin-4-yl]ethyl}-1-[4-(trifluoromethoxy)phenyl]piperidine-4-carboxamide], the Ki fell in the range of 100 to 1000 nM.

Take `COc1cccc(CN2CCC(CCNC(=O)C3CCN(c4ccc(OC(F)(F)F)cc4)CC3)CC2)n1` [11-30, N-(2-{l-[(6-methoxypyridin-2-yl)methyl]piperidin-4-yl}ethyl)-1-[4-(trifluoromethoxy)phenyl]piperidine-4-carboxamide]: the Ki lay within 100 to 1000 nM. With `O=C(OCCC1CCN(Cc2ccccc2)CC1)N1CCN(c2ccc(OC(F)(F)F)cc2)CC1` [12-1, 2-(1-benzylpiperidin-4-yl)ethyl 4-[4-(trifluoromethoxy)phenyl]piperazine-1-carboxylate] the figure was 10 to 100 nM; with `N#Cc1cccc(N2CCN(C(=O)OCCC3CCN(Cc4ccccc4)CC3)CC2)c1` [12-2, 2-(1-benzylpiperidin-4-yl)ethyl 4-(3-cyanophenyl)piperazine-1-carboxylate], 100 to 1000 nM; with `O=C(OCCC1CCN(Cc2ccccc2)CC1)N1CCN(c2ccc(F)cc2)CC1` [12-3, 2-(1-benzylpiperidin-4-yl)ethyl 4-(4-fluorophenyl)piperazine-1-carboxylate], 100 to 1000 nM. Then `O=C(OCCC1CCN(Cc2ccccc2)CC1)N1CCN(c2cccc(OC(F)(F)F)c2)CC1` [12-4, 2-(1-benzylpiperidin-4-yl)ethyl 4-[3-(trifluoromethoxy)phenyl]piperazine-1-carboxylate], with 10 to 100 nM.

Take `N#Cc1cccc(N2CCC(NC(=O)OCCC3CCN(Cc4ccccc4)CC3)CC2)c1` [12-5, 2-(1-benzylpiperidin-4-yl)ethyl N-[1-(3-cyanophenyl)piperidin-4-yl]carbamate]: the Ki was 100 to 1000 nM. Then `O=C(NC1CCN(c2ccc(F)cc2)CC1)OCCC1CCN(Cc2ccccc2)CC1` [12-6, 2-(1-benzylpiperidin-4-yl)ethyl N-[1-(4-fluorophenyl)piperidin-4-yl]carbamate], with 100 to 1000 nM; and `O=C(OCCC1CCN(Cc2ccccc2)CC1)N1CCC(O)(c2ccccc2)CC1` [12-7, 2-(1-benzylpiperidin-4-yl)ethyl 4-hydroxy-4-phenylpiperidine-1-carboxylate], with 100 to 1000 nM. Then `O=C(OCCC1CCN(Cc2ccccc2)CC1)N1CCC(c2ccccc2)CC1` [12-8, 2-(1-benzylpiperidin-4-yl)ethyl 4-phenylpiperidine-1-carboxylate], with 100 to 1000 nM. Take `N#Cc1cc(F)cc(N2CCN(C(=O)OCCC3CCN(Cc4ccccc4)CC3)CC2)c1` [12-9, 2-(1-benzylpiperidin-4-yl)ethyl 4-(3-cyano-5-fluorophenyl)piperazine-1-carboxylate]: the Ki was in the range of 100 to 1000 nM.

`N#Cc1cc(N2CCN(C(=O)OCCC3CCN(Cc4ccccc4)CC3)CC2)ccc1F` [12-10, 2-(1-benzylpiperidin-4-yl)ethyl 4-(3-cyano-4-fluorophenyl)piperazine-1-carboxylate]: the Ki lay in the range of 100 to 1000 nM.

`O=C(NC1CCN(c2ccc(OC(F)(F)F)cc2)CC1)OCCC1CCN(Cc2ccccc2)CC1` [12-11, 2-(1-benzylpiperidin-4-yl)ethyl N-{1-[4-(trifluoromethoxy)phenyl]piperidin-4-yl}carbamate]: the Ki was in the range of 10 to 100 nM. With `O=C(OCCC1CCN(Cc2ccccc2)CC1)N1CCN(c2cc(F)c(F)c(F)c2)CC1` [12-12, 2-(1-benzylpiperidin-4-yl)ethyl 4-(3,4,5-trifluorophenyl)piperazine-1-carboxylate] the figure was 10 to 100 nM; with `Cc1c(C(=O)NCCC2CCN(Cc3ccccc3)CC2)cnc2cc(-c3ccccc3)nn12` [17-2, N-[2-(1-benzylpiperidin-4-yl)ethyl]-7-methyl-2-phenylpyrazolo[1,5-a]pyrimidine-6-carboxamide], 100 to 1000 nM; with `Cc1c(C(=O)NCCC2CCN(Cc3ccccc3)CC2)cnc2cc(-c3ccc(Cl)cc3)nn12` [17-4, N-[2-(1-benzylpiperidin-4-yl)ethyl]-2-(4-chlorophenyl)-7-methylpyrazolo[1,5-a]pyrimidine-6-carboxamide], 10 to 100 nM.

As to `Cc1c(C(=O)NCCC2CCN(Cc3ccccc3)CC2)cnc2cc(-c3cccs3)nn12` [17-7, N-[2-(1-benzylpiperidin-4-yl)ethyl]-7-methyl-2-(thiophen-2-yl)pyrazolo[1,5-a]pyrimidine-6-carboxamide], the Ki is 100 to 1000 nM. As to `Cc1c(C(=O)NCCC2CCN(Cc3ccccc3)CC2)cnc2cc(-c3ccc(C(F)(F)F)cc3)nn12` [17-8, N-[2-(1-benzylpiperidin-4-yl)ethyl]-7-methyl-2-[4-(trifluoromethyl)phenyl]pyrazolo[1,5-a]pyrimidine-6-carboxamide], the inhibition constant (Ki) lay in the range of 10 to 100 nM. `Cc1c(C(=O)NCCC2CCN(Cc3ccccc3)CC2)cnc2cc(-c3ccccn3)nn12` [18-2, N-[2-(1-benzylpiperidin-4-yl)ethyl]-7-methyl-2-(pyridin-2-yl)pyrazolo[1,5-a]pyrimidine-6-carboxamide]: the Ki lay in the range of 100 to 1000 nM. With `Cc1c(C(=O)NCCC2CCN(Cc3ccccc3)CC2)cnc2cc(-c3ccc(C#N)cc3)nn12` [18-3] the figure was 100 to 1000 nM; with `Cc1c(C(=O)NCCC2CCN(Cc3ccccc3)CC2)cnc2cc(-c3cccc(F)c3)nn12` [18-6], 10 to 100 nM; with `Cc1c(C(=O)NCCC2CCN(Cc3ccccc3)CC2)cnc2cc(-c3cccc(F)c3F)nn12` [18-7], 10 to 100 nM.

Values taken from patent publication US11033539B2, “Compounds of formulas (VII), (VIII), (IX), (XI), (XII), (XIII), and (XIV) as muscarinic receptor 4(M4) antagonists for treating neurological diseases” (Neurocrine Biosciences, Inc., priority 2015, dated 2021).
